# Measured values taken from patent US20100112061A1, “Monophosphates as Mutual Prodrugs of Muscarinic Receptor Antagonists and Beta-Agonists for the Treatment of COPD And Chronic Bronchitis” (priority 2006, published 2010).
# Columns and labels:
# alkaline phosphatase = alkaline phosphatase (Homo sapiens, UniProt P05187); assay: Conversion of the mutual MRA-β-agonist prodrug to salmeterol and MRA after exposure to alkaline phosphatase in vitro (LCMS); format: in vitro ADME; conditions: for Example 29 (GS-343071) in ALP (Peak Area Ratio) Normalized / Example 29 (GS-343071) in ALP (Peak Area Ratio) mean / Formation of dipeptide (Sagara 2006) in ALP (Peak Area Ratio) Normalized / Formation of dipeptide (Sagara 2006) in ALP (Peak Area Ratio) mean: alkaline phosphatase; for Formation of dipeptide (Sagara 2006) in ALP (Peak Area Ratio) Normalized / Formation of dipeptide (Sagara 2006) in ALP (Peak Area Ratio) mean: from prodrug Example 29
# alkaline phosphatase, sequence (P05187 23-506 limits assumed): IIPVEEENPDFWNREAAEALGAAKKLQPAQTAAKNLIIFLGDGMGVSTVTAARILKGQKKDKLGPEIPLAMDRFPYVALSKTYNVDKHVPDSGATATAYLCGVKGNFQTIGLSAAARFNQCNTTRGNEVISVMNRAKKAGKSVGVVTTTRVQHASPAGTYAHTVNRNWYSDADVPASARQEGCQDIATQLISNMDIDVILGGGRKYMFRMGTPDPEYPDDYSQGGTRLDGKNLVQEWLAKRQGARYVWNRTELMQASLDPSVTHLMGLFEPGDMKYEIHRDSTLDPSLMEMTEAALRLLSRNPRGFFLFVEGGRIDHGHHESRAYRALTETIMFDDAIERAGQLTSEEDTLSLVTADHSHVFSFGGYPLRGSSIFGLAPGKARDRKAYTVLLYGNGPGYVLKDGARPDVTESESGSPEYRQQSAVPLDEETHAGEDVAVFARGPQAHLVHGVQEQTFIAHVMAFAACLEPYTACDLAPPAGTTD
# Method: Conversion of the Mutual MRA-β-Agonist Prodrug (Described in Example 29) to Salmeterol and MRA after Exposure to Alkaline Phosphatase In Vitro
# (§1) Reaction Buffer (pH 7.4, 5 mM tris/1 mM Mg^2+/1 mM Zn^2+)
# (§2) Diluted 5 ml of 50 mM tris stock, 1 ml of 50 mM MgCl2 stock, and 1 ml of ZnCl2 and then stocked to 10 ml with water.
# Alkaline Phosphatase Stock Solution […]
# Dissolved ˜2 mg of the mutual prodrug of invention in 10 ml 1:1 acetonitrile/water.
# Reaction Product Stock Solution
# Dissolved ˜2 mg of each MRA and β-agonist in 20 ml 1:1 acetonitrile/water
# The stock solutions were mixed in microcentrifuge tubes, as depicted in the following Table:
# (§3) The heat block was set at the 37 degrees. Then 0.5 mL of alkaline phosphatase solution was added into 4 preheated Eppendorf tubes. The aliquot 0.5 of prodrug and drug standards were added into preheated Eppendorf tubes. Immediately after vortexing the aliquots of 25 μL of the all reaction solutions were made into the respective 96-well plate positions. The internal standard (75 μl of 500 ng/mL Glyburide) was added into all samples after each aliquots. That procedure was repeated at every 15 minute intervals for ˜4-5 hrs.
# The 96-well plates were then analyzed using the LCMS technique.
# Half Life Calculation (t1/2)
# (§4) In the calculation of half life, we assumed that the disappearance of the mutual prodrug of this invention followed first order kinetics. Therefore,
# (§5) The area peak ratio of prodrug vs IS was plotted against time first; the peak area ratios of later time points were normalized with the peak area ratio of initial time point (ASAP). The natural log of the normalized ratio was then plotted against time to generate a linear curve. The slope of this linear curve k was used for the following calculation.
# Graphic plotted rate constant of loss K
# Drug Concentration Determination
# Drug concentrations are calculated by normalizing the peak area ration to (t 0). Thus, calculated drug concentrations at any time point=normalized peak area ratio [t (0) mean/t mean]×initial drug concentration. Data (normalized peak area ratio) for the calculations of drug concentrations are listed in Table 1 and 2 for compounds in Example 29 (GS343071), salmeterol, and the dipeptide (M3 antagonist prepared by Sagara 2006).
# [1] = Half life of the prodrug in reaction buffer only (no alkaline phosphatase); format: physicochemical; conditions: reaction buffer without alkaline phosphatase; reaction buffer pH 7.4, no alkaline phosphatase
# Method: as §1, §2
# as §3, with “Then 0.5 mL of alkaline phosphatase solution was added into 4 preheated Eppendorf tubes.” left out
# as §4, §5
compound,measurement,setting,value
"C[N+]1(Cc2cc(C(O)CNCCCCCCOCCCCc3ccccc3)ccc2OP(=O)(O)O)CCC(CNC(=O)[C@H]2CCCN2C(=O)[C@@H]2C[C@@H](O)CN2C(=O)CC(c2ccc(F)cc2)(c2ccc(F)cc2)c2ccc(F)cc2)CC1 (stereo partly drawn) [Example 29, 1-(5-{1-Hydroxy-2-[6-(4-phenyl-butoxy)-hexylamino]-ethyl}-2-phosphonooxy-benzyl)-4-{[(1-{4-hydroxy-1-[3,3,3-tris-(4-fluoro-phenyl)-propionyl]-pyrrolidine-(S)-2-carbonyl}-pyrrolidine-(R)-2-carbonyl)-amino]-methyl}-1-methyl-piperidinium]",Half Life t1/2,"alkaline phosphatase; ALP Enzyme Conc. 0.224 mg/mL, 37 degrees, first order kinetics assumed",95.0 min
same,Calculated Compound Final Conc. (μM) at 270 mins.,"alkaline phosphatase; Added Compound Initial Conc. 86.6 μM in Reaction Mixture, ALP Enzyme Conc. 0.443 mg/mL",7.8 µM
same,Example 29 (GS-343071) in ALP (Peak Area Ratio) Normalized,"alkaline phosphatase; Time 0 mins, 37 degrees",1.0000
same,Example 29 (GS-343071) in ALP (Peak Area Ratio) mean,"alkaline phosphatase; Time 0 mins, 37 degrees",0.2030
same,Example 29 (GS-343071) in ALP (Peak Area Ratio) Normalized,"alkaline phosphatase; Time 15.0 mins, 37 degrees",0.5887
same,Example 29 (GS-343071) in ALP (Peak Area Ratio) mean,"alkaline phosphatase; Time 15.0 mins, 37 degrees",0.1195
same,Example 29 (GS-343071) in ALP (Peak Area Ratio) Normalized,"alkaline phosphatase; Time 30.0 mins, 37 degrees",0.4340
same,Example 29 (GS-343071) in ALP (Peak Area Ratio) mean,"alkaline phosphatase; Time 30.0 mins, 37 degrees",0.0881
same,Example 29 (GS-343071) in ALP (Peak Area Ratio) Normalized,"alkaline phosphatase; Time 45.0 mins, 37 degrees",0.3313
same,Example 29 (GS-343071) in ALP (Peak Area Ratio) mean,"alkaline phosphatase; Time 45.0 mins, 37 degrees",0.0673
same,Example 29 (GS-343071) in ALP (Peak Area Ratio) Normalized,"alkaline phosphatase; Time 60.0 mins, 37 degrees",0.2850
same,Example 29 (GS-343071) in ALP (Peak Area Ratio) mean,"alkaline phosphatase; Time 60.0 mins, 37 degrees",0.0579
same,Example 29 (GS-343071) in ALP (Peak Area Ratio) Normalized,"alkaline phosphatase; Time 75.0 mins, 37 degrees",0.2387
same,Example 29 (GS-343071) in ALP (Peak Area Ratio) mean,"alkaline phosphatase; Time 75.0 mins, 37 degrees",0.0485
same,Example 29 (GS-343071) in ALP (Peak Area Ratio) Normalized,"alkaline phosphatase; Time 90.0 mins, 37 degrees",0.2079
same,Example 29 (GS-343071) in ALP (Peak Area Ratio) mean,"alkaline phosphatase; Time 90.0 mins, 37 degrees",0.0422
same,Example 29 (GS-343071) in ALP (Peak Area Ratio) Normalized,"alkaline phosphatase; Time 105 mins, 37 degrees",0.2017
same,Example 29 (GS-343071) in ALP (Peak Area Ratio) mean,"alkaline phosphatase; Time 105 mins, 37 degrees",0.0410
same,Example 29 (GS-343071) in ALP (Peak Area Ratio) Normalized,"alkaline phosphatase; Time 120 mins, 37 degrees",0.1788
same,Example 29 (GS-343071) in ALP (Peak Area Ratio) mean,"alkaline phosphatase; Time 120 mins, 37 degrees",0.0363
same,Example 29 (GS-343071) in ALP (Peak Area Ratio) Normalized,"alkaline phosphatase; Time 135 mins, 37 degrees",0.1643
same,Example 29 (GS-343071) in ALP (Peak Area Ratio) mean,"alkaline phosphatase; Time 135 mins, 37 degrees",0.0334
same,Example 29 (GS-343071) in ALP (Peak Area Ratio) Normalized,"alkaline phosphatase; Time 150 mins, 37 degrees",0.1397
same,Example 29 (GS-343071) in ALP (Peak Area Ratio) mean,"alkaline phosphatase; Time 150 mins, 37 degrees",0.0284
same,Example 29 (GS-343071) in ALP (Peak Area Ratio) Normalized,"alkaline phosphatase; Time 165 mins, 37 degrees",0.1310
same,Example 29 (GS-343071) in ALP (Peak Area Ratio) mean,"alkaline phosphatase; Time 165 mins, 37 degrees",0.0266
same,Example 29 (GS-343071) in ALP (Peak Area Ratio) Normalized,"alkaline phosphatase; Time 180 mins, 37 degrees",0.1372
same,Example 29 (GS-343071) in ALP (Peak Area Ratio) mean,"alkaline phosphatase; Time 180 mins, 37 degrees",0.0279
same,Example 29 (GS-343071) in ALP (Peak Area Ratio) Normalized,"alkaline phosphatase; Time 210 mins, 37 degrees",0.1163
same,Example 29 (GS-343071) in ALP (Peak Area Ratio) mean,"alkaline phosphatase; Time 210 mins, 37 degrees",0.0236
same,Example 29 (GS-343071) in ALP (Peak Area Ratio) Normalized,"alkaline phosphatase; Time 240 mins, 37 degrees",0.0978
same,Example 29 (GS-343071) in ALP (Peak Area Ratio) mean,"alkaline phosphatase; Time 240 mins, 37 degrees",0.0199
same,Example 29 (GS-343071) in ALP (Peak Area Ratio) Normalized,"alkaline phosphatase; Time 270 mins, 37 degrees",0.0906
same,Example 29 (GS-343071) in ALP (Peak Area Ratio) mean,"alkaline phosphatase; Time 270 mins, 37 degrees",0.0184
same,half-life,"alkaline phosphatase; human, pH 7.4, ALP Enzyme Conc. 0.224 mg/mL, 37 degrees, first order kinetics assumed, read-out: Half Life t1/2",62.4 min
same,half-life at 86.6 μM,"alkaline phosphatase; human, pH 7.4, ALP Enzyme Conc. 0.443 mg/mL, 37 degrees, first order kinetics assumed, read-out: Half Life t1/2",43.2 min
same,half-life,[1],770 min
"CN1CCC(CNC(=O)[C@H]2CCCN2C(=O)[C@@H]2CC(O)CN2C(=O)CC(c2ccc(F)cc2)(c2ccc(F)cc2)c2ccc(F)cc2)CC1 (stereo partly drawn) [dipeptide (Sagara 2006), 1-{4-hydroxy-1-[3,3,3-tris-(4-fluoro-phenyl)-propionyl]-pyrrolidine-(S)-2-carbonyl}-pyrrolidine-(R)-2-carboxylic acid-(1-methyl-piperidin-4-ylmethyl)-amide, reference compound]",Formation of dipeptide (Sagara 2006) in ALP (Peak Area Ratio) Normalized,"alkaline phosphatase; Time 0 mins, 37 degrees",1.0000
same,Formation of dipeptide (Sagara 2006) in ALP (Peak Area Ratio) mean,"alkaline phosphatase; Time 0 mins, 37 degrees",0.1765
same,Formation of dipeptide (Sagara 2006) in ALP (Peak Area Ratio) Normalized,"alkaline phosphatase; Time 15.0 mins, 37 degrees",1.9830
same,Formation of dipeptide (Sagara 2006) in ALP (Peak Area Ratio) mean,"alkaline phosphatase; Time 15.0 mins, 37 degrees",0.3500
same,Formation of dipeptide (Sagara 2006) in ALP (Peak Area Ratio) Normalized,"alkaline phosphatase; Time 30.0 mins, 37 degrees",2.7365
same,Formation of dipeptide (Sagara 2006) in ALP (Peak Area Ratio) mean,"alkaline phosphatase; Time 30.0 mins, 37 degrees",0.4830
same,Formation of dipeptide (Sagara 2006) in ALP (Peak Area Ratio) Normalized,"alkaline phosphatase; Time 45.0 mins, 37 degrees",2.7989
same,Formation of dipeptide (Sagara 2006) in ALP (Peak Area Ratio) mean,"alkaline phosphatase; Time 45.0 mins, 37 degrees",0.4940
same,Formation of dipeptide (Sagara 2006) in ALP (Peak Area Ratio) Normalized,"alkaline phosphatase; Time 60.0 mins, 37 degrees",3.0595
same,Formation of dipeptide (Sagara 2006) in ALP (Peak Area Ratio) mean,"alkaline phosphatase; Time 60.0 mins, 37 degrees",0.5400
same,Formation of dipeptide (Sagara 2006) in ALP (Peak Area Ratio) Normalized,"alkaline phosphatase; Time 75.0 mins, 37 degrees",3.2210
same,Formation of dipeptide (Sagara 2006) in ALP (Peak Area Ratio) mean,"alkaline phosphatase; Time 75.0 mins, 37 degrees",0.5685
same,Formation of dipeptide (Sagara 2006) in ALP (Peak Area Ratio) Normalized,"alkaline phosphatase; Time 90.0 mins, 37 degrees",3.6402
same,Formation of dipeptide (Sagara 2006) in ALP (Peak Area Ratio) mean,"alkaline phosphatase; Time 90.0 mins, 37 degrees",0.6425
same,Formation of dipeptide (Sagara 2006) in ALP (Peak Area Ratio) Normalized,"alkaline phosphatase; Time 105 mins, 37 degrees",3.8612
same,Formation of dipeptide (Sagara 2006) in ALP (Peak Area Ratio) mean,"alkaline phosphatase; Time 105 mins, 37 degrees",0.6815
same,Formation of dipeptide (Sagara 2006) in ALP (Peak Area Ratio) Normalized,"alkaline phosphatase; Time 120 mins, 37 degrees",3.9207
same,Formation of dipeptide (Sagara 2006) in ALP (Peak Area Ratio) mean,"alkaline phosphatase; Time 120 mins, 37 degrees",0.6920
same,Formation of dipeptide (Sagara 2006) in ALP (Peak Area Ratio) Normalized,"alkaline phosphatase; Time 135 mins, 37 degrees",4.0793
same,Formation of dipeptide (Sagara 2006) in ALP (Peak Area Ratio) mean,"alkaline phosphatase; Time 135 mins, 37 degrees",0.7200
same,Formation of dipeptide (Sagara 2006) in ALP (Peak Area Ratio) Normalized,"alkaline phosphatase; Time 150 mins, 37 degrees",4.2890
same,Formation of dipeptide (Sagara 2006) in ALP (Peak Area Ratio) mean,"alkaline phosphatase; Time 150 mins, 37 degrees",0.7570
same,Formation of dipeptide (Sagara 2006) in ALP (Peak Area Ratio) Normalized,"alkaline phosphatase; Time 165 mins, 37 degrees",4.4193
same,Formation of dipeptide (Sagara 2006) in ALP (Peak Area Ratio) mean,"alkaline phosphatase; Time 165 mins, 37 degrees",0.7800
same,Formation of dipeptide (Sagara 2006) in ALP (Peak Area Ratio) Normalized,"alkaline phosphatase; Time 180 mins, 37 degrees",4.7082
same,Formation of dipeptide (Sagara 2006) in ALP (Peak Area Ratio) mean,"alkaline phosphatase; Time 180 mins, 37 degrees",0.8310
same,Formation of dipeptide (Sagara 2006) in ALP (Peak Area Ratio) Normalized,"alkaline phosphatase; Time 210 mins, 37 degrees",5.0227
same,Formation of dipeptide (Sagara 2006) in ALP (Peak Area Ratio) mean,"alkaline phosphatase; Time 210 mins, 37 degrees",0.8865
same,Formation of dipeptide (Sagara 2006) in ALP (Peak Area Ratio) Normalized,"alkaline phosphatase; Time 240 mins, 37 degrees",5.0567
same,Formation of dipeptide (Sagara 2006) in ALP (Peak Area Ratio) mean,"alkaline phosphatase; Time 240 mins, 37 degrees",0.8925
same,Formation of dipeptide (Sagara 2006) in ALP (Peak Area Ratio) Normalized,"alkaline phosphatase; Time 270 mins, 37 degrees",5.6997
same,Formation of dipeptide (Sagara 2006) in ALP (Peak Area Ratio) mean,"alkaline phosphatase; Time 270 mins, 37 degrees",1.0060
